Laboratory results taken from ChEMBL document CHEMBL1201862, “PubChem BioAssay data set” (2004).
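48-hour exposure; five concentrations; linearly interpolated endpoints. Abbreviation: GI50, concentration required for 50% inhibition of growth.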 Activity calls are given as the source filed them. Cut-off read from the data, not from the text of the source: active = GI50 up to about 1.1 µM and inactive = higher. Square brackets hold non-standard residues; d marks the D form. Peptide text beside a SMILES is read from it. * marks the point of attachment. NMeV = CN[C@H](C(=O)O)C(C)C; X28 = COc1ccc(CN*)c(OC)c1; Octanoyl = CCCCCCCC(=O)*; dNMeA = CN[C@H](C)C(=O)O

Tests used:
Assay in all cases: NCI anticancer screen, dose series, 48 h
[1] = tested on: SR
[2] = tested on: IGROV-1
[3] = tested on: HL-60
[4] = tested on: UACC-62
[5] = tested on: NCI-H226
[6] = tested on: SK-OV-3
[7] = tested on: MDA-MB-435
[8] = tested on: SK-MEL-2
[9] = tested on: SN12C
[10] = tested on: A498
[11] = tested on: SK-MEL-28
[12] = tested on: OVCAR-5
[13] = tested on: OVCAR-4
[14] = tested on: ACHN
[15] = tested on: COLO 205
[16] = tested on: M14
[17] = tested on: PC-3
[18] = tested on: T47D
[19] = tested on: LOX IMVI
[20] = tested on: SF-539

CCOC(=O)Cn1nc2ccc(Nc3nc4ccccc4nc3C(=O)OCC)cc2n1
GI50 [1]: > 100 µM (inactive)
GI50 [2]: 69.7 µM (inactive)
GI50 [3]: > 100 µM (inactive)
GI50 [4]: 66.8 µM (inactive)
GI50 [5]: 59.8 µM (inactive)
GI50 [6]: 49.3 µM (inactive)
GI50 [7]: > 100 µM (inactive)
GI50 [8]: 54.6 µM (inactive)
GI50 [9]: > 100 µM (inactive)
GI50 [10]: 60.1 µM (inactive)
GI50 [11]: > 100 µM (inactive)
GI50 [12]: > 100 µM (inactive)
GI50 [13]: 42.8 µM (inactive)
GI50 [14]: > 100 µM (inactive)
GI50 [15]: > 100 µM (inactive)
GI50 [16]: > 100 µM (inactive)
GI50 [17]: 98.4 µM (inactive)
GI50 [18]: 37.5 µM (inactive)
GI50 [19]: > 100 µM (inactive)
GI50 [20]: 23.5 µM (inactive)

O=C1C2C(c3ccccc3)NC(c3ccccc3)C1C(c1ccccc1)NC2c1ccccc1 (stereo not given)
GI50 [1]: > 100 µM (inactive)
GI50 [2]: > 100 µM (inactive)
GI50 [3]: > 100 µM (inactive)
GI50 [4]: > 100 µM (inactive)
GI50 [5]: > 100 µM (inactive)
GI50 [6]: > 100 µM (inactive)
GI50 [7]: > 100 µM (inactive)
GI50 [8]: > 100 µM (inactive)
GI50 [9]: > 100 µM (inactive)
GI50 [10]: > 100 µM (inactive)
GI50 [11]: > 100 µM (inactive)
GI50 [12]: > 100 µM (inactive)
GI50 [13]: > 100 µM (inactive)
GI50 [14]: > 100 µM (inactive)
GI50 [15]: > 100 µM (inactive)
GI50 [16]: > 100 µM (inactive)
GI50 [17]: > 100 µM (inactive)
GI50 [18]: > 100 µM (inactive)
GI50 [19]: > 100 µM (inactive)
GI50 [20]: > 100 µM (inactive)

O=C(NC1(c2cc3ccccc3s2)CCCCC1)C1CCC1
GI50 [1]: > 100 µM (inactive)
GI50 [2]: > 100 µM (inactive)
GI50 [3]: > 100 µM (inactive)
GI50 [4]: > 100 µM (inactive)
GI50 [5]: > 100 µM (inactive)
GI50 [6]: > 100 µM (inactive)
GI50 [7]: > 100 µM (inactive)
GI50 [8]: > 100 µM (inactive)
GI50 [9]: > 100 µM (inactive)
GI50 [10]: > 100 µM (inactive)
GI50 [11]: 66.8 µM (inactive)
GI50 [12]: > 100 µM (inactive)
GI50 [13]: 97.5 µM (inactive)
GI50 [14]: > 100 µM (inactive)
GI50 [15]: > 100 µM (inactive)
GI50 [16]: > 100 µM (inactive)
GI50 [17]: > 100 µM (inactive)
GI50 [18]: > 100 µM (inactive)
GI50 [19]: > 100 µM (inactive)
GI50 [20]: 23.1 µM (inactive)

C=CCN1C(=O)CS/C1=N\NC(=O)CSc1nc2ccccc2c(=O)n1CC
GI50 [1]: > 100 µM (inactive)
GI50 [2]: > 100 µM (inactive)
GI50 [3]: > 100 µM (inactive)
GI50 [4]: 92 µM (inactive)
GI50 [5]: > 100 µM (inactive)
GI50 [6]: > 100 µM (inactive)
GI50 [7]: > 100 µM (inactive)
GI50 [8]: > 100 µM (inactive)
GI50 [9]: > 100 µM (inactive)
GI50 [10]: 35 µM (inactive)
GI50 [11]: > 100 µM (inactive)
GI50 [12]: 84.1 µM (inactive)
GI50 [13]: > 100 µM (inactive)
GI50 [14]: > 100 µM (inactive)
GI50 [15]: > 100 µM (inactive)
GI50 [16]: > 100 µM (inactive)
GI50 [17]: > 100 µM (inactive)
GI50 [18]: > 100 µM (inactive)
GI50 [19]: > 100 µM (inactive)
GI50 [20]: > 100 µM (inactive)

C/C(=N\NC(=S)N1CCCCCC1)c1ccccn1
GI50 [1]: 0.00392 µM (active)
GI50 [2]: 0.00162 µM (active)
GI50 [3]: 0.0021 µM (active)
GI50 [4]: 0.00881 µM (active)
GI50 [5]: 0.565 µM (active)
GI50 [6]: 0.00665 µM (active)
GI50 [7]: 0.601 µM (active)
GI50 [8]: 0.132 µM (active)
GI50 [9]: 0.548 µM (active)
GI50 [10]: 0.697 µM (active)
GI50 [11]: 1.18 µM (inactive)
GI50 [12]: 0.897 µM (active)
GI50 [13]: 0.185 µM (active)
GI50 [14]: 0.00405 µM (active)
GI50 [15]: 0.00244 µM (active)
GI50 [16]: 0.0266 µM (active)
GI50 [17]: 0.011 µM (active)
GI50 [18]: 0.00438 µM (active)
GI50 [19]: 0.0656 µM (active)
GI50 [20]: 0.0506 µM (active)

CCCCCCCC(=O)N[C@H](C(=O)N[C@H](C(=O)N(C)[C@H](C(=O)N1CCC[C@H]1C(=O)N(C)[C@H](C)C(=O)NCc1ccc(OC)cc1OC)C(C)C)C(C)C)C(C)C (Octanoyl-VV[NMeV]P[dNMeA]-X28)
GI50 [1]: 17.6 µM (inactive)
GI50 [2]: 3.75 µM (inactive)
GI50 [3]: 3.68 µM (inactive)
GI50 [4]: 7.21 µM (inactive)
GI50 [5]: 4.95 µM (inactive)
GI50 [6]: 28.9 µM (inactive)
GI50 [7]: 5.22 µM (inactive)
GI50 [8]: 12.9 µM (inactive)
GI50 [9]: 18 µM (inactive)
GI50 [10]: 1.95 µM (inactive)
GI50 [11]: 8.77 µM (inactive)
GI50 [12]: 25.5 µM (inactive)
GI50 [13]: 6.14 µM (inactive)
GI50 [14]: 5.26 µM (inactive)
GI50 [15]: 5.74 µM (inactive)
GI50 [16]: 7.82 µM (inactive)
GI50 [17]: 7.01 µM (inactive)
GI50 [18]: 4.29 µM (inactive)
GI50 [19]: 12.2 µM (inactive)
GI50 [20]: 18.8 µM (inactive)

C=C1C(=O)O[C@H]2[C@H]1[C@H](OC(=O)/C(C)=C\C)C[C@]1(CO1)[C@@H]1[C@H](OC(C)=O)C=C(C)[C@]21O [EUPAROTIN ACETATE]
GI50 [1]: 3.64 µM (inactive)
GI50 [2]: 19.5 µM (inactive)
GI50 [3]: 2.66 µM (inactive)
GI50 [4]: 15.5 µM (inactive)
GI50 [5]: > 43 µM (inactive)
GI50 [6]: > 59.6 µM (inactive)
GI50 [7]: 17.9 µM (inactive)
GI50 [8]: 25.5 µM (inactive)
GI50 [9]: 14 µM (inactive)
GI50 [10]: 1.24 µM (inactive)
GI50 [11]: 14.7 µM (inactive)
GI50 [12]: 25.4 µM (inactive)
GI50 [13]: 32.8 µM (inactive)
GI50 [14]: 10.6 µM (inactive)
GI50 [15]: 5.24 µM (inactive)
GI50 [16]: 21.6 µM (inactive)
GI50 [17]: 23.1 µM (inactive)
GI50 [18]: 14.5 µM (inactive)
GI50 [19]: 12.7 µM (inactive)
GI50 [20]: 30.3 µM (inactive)
